# Measurements published in US20150073005A1, “COMPOSITION FOR HAIR GROWTH” (ASAHI GLASS COMPANY, LIMITED, priority 2012, published 2015).
# Test system: C3H/HeNSIc mouse
# Details: in vivo
# From the text: Hairs on the back of each C3H/HeNSIc mouse (male, 8 weeks old) were carefully dehaired in an area of 2 cm×3 cm to form a medicine application surface. The next day (the day before initiation of the test), mice which were confirmed to have no damage on the application surface of the back, to have a pink color over the entire application surface and to be in the telogen stage of hair growth, were bred in a stainless steel cage (185 W×260 D×175 H (mm)) in three groups each group consisting of 10 mice.
# Every day, the application surface was inspected before the application, and the day on which hair growth was observed, was taken as the hair growth day.
structure (smiles),measurement,value
"CC(C)OC(=O)CCC/C=C\C[C@@H]1[C@@H](/C=C/C(F)(F)COc2ccccc2)[C@H](O)C[C@@H]1O [0.0015% Tafluprost, Tafluprost]",Blackening of the skin at the application surface as visually observed,^aHair growth without blackening of the skin as visually observed.
